Measured values as given in the supplement of paper PMC10307832.

Legend:
Experiment in all cases: relative viability (nuclei count vs DMSO), 5 days (fraction); higher = more cells survive
NCI-H596 = tested on: NCI-H596
Summary of the method: (§1)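 After 5 days of treatment, lung cancer cells in 1536-well plates were fixed and stained in a single step (final 0.05% Triton X-100, 1% formaldehyde, 1 ug/ml Hoechst) and their nuclei counted on 4× images. Treatment had been applied by pin tool the day after seeding as one drug alone or as a fixed anchor-drug dose with five library-drug doses (not always all listed) in √10 steps. Relative viability is the nuclei count of treated wells divided by that of vehicle wells, and values are medians of duplicate plates.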

NCI-H727 = tested on: NCI-H727
Summary of the method: as §1

NCI-H1792 = tested on: NCI-H1792
Summary of the method: as §1

NCI-H2009 = tested on: NCI-H2009
Summary of the method: as §1

NCI-H358 = tested on: NCI-H358
Summary of the method: as §1

NCI-H2087 = tested on: NCI-H2087
Summary of the method: as §1

NCI-H1651 = tested on: NCI-H1651
Summary of the method: as §1

NCI-H1355 = tested on: NCI-H1355
Summary of the method: as §1

H3255 = tested on: H3255
Summary of the method: as §1

SW 1573 = tested on: SW 1573
Summary of the method: as §1

NCI-H23 = tested on: NCI-H23
Summary of the method: as §1

SK-MES-1 = tested on: SK-MES-1
Summary of the method: as §1

NCI-H1666 = tested on: NCI-H1666
Summary of the method: as §1

NCI-H1437 = tested on: NCI-H1437
Summary of the method: as §1

NCI-H1793 = tested on: NCI-H1793
Summary of the method: as §1

PC-14 = tested on: PC-14
Summary of the method: as §1

CAL-12T = tested on: CAL-12T
Summary of the method: as §1

NCI-H522 = tested on: NCI-H522
Summary of the method: as §1

UMC-11 = tested on: UMC-11
Summary of the method: as §1

NCI-H2023 = tested on: NCI-H2023
Summary of the method: as §1

A-427 = tested on: A-427
Summary of the method: as §1

ABC-1 = tested on: ABC-1
Summary of the method: as §1

NCI-H838 = tested on: NCI-H838
Summary of the method: as §1

C=C1C(=O)O[C@@H](CCCCCCCC)[C@@H]1C(=O)O [C-75] + O=C(c1cc(Cc2n[nH]c(=O)c3ccccc23)ccc1F)N1CCN(C(=O)C2CC2)CC1 [Olaparib] (partner 8 µM)
relative viability (NCI-H596; first compound 0.08 µM): 0.73 | relative viability (NCI-H596; first compound 0.253 µM): 0.686 | relative viability (NCI-H596; first compound 0.8 µM): 0.626 | relative viability (NCI-H596; first compound 2.53 µM): 0.601 | relative viability (NCI-H596; first compound 8 µM): 0.656 | relative viability (NCI-H727; first compound 0.08 µM): 0.69 | relative viability (NCI-H727; first compound 0.253 µM): 0.865 | relative viability (NCI-H727; first compound 0.8 µM): 0.671 | relative viability (NCI-H727; first compound 2.53 µM): 0.371 | relative viability (NCI-H727; first compound 8 µM): 0.636 | relative viability (NCI-H1792; first compound 0.08 µM): 0.384 | relative viability (NCI-H1792; first compound 0.253 µM): 0.438 | relative viability (NCI-H1792; first compound 0.8 µM): 0.462 | relative viability (NCI-H1792; first compound 2.53 µM): 0.306 | relative viability (NCI-H1792; first compound 8 µM): 0.431 | relative viability (NCI-H2009; first compound 0.08 µM): 0.67 | relative viability (NCI-H2009; first compound 0.253 µM): 0.654 | relative viability (NCI-H2009; first compound 0.8 µM): 0.623 | relative viability (NCI-H2009; first compound 2.53 µM): 0.488 | relative viability (NCI-H2009; first compound 8 µM): 0.521 | relative viability (NCI-H358; first compound 0.08 µM): 0.642 | relative viability (NCI-H358; first compound 0.253 µM): 0.623 | relative viability (NCI-H358; first compound 0.8 µM): 0.534 | relative viability (NCI-H358; first compound 8 µM): 0.575 | relative viability (NCI-H2087; first compound 0.08 µM): 0.643 | relative viability (NCI-H2087; first compound 0.253 µM): 0.626 | relative viability (NCI-H2087; first compound 0.8 µM): 0.584 | relative viability (NCI-H2087; first compound 2.53 µM): 0.468 | relative viability (NCI-H2087; first compound 8 µM): 0.423 | relative viability (NCI-H1651; first compound 0.08 µM): 0.196 | relative viability (NCI-H1651; first compound 0.253 µM): 0.206 | relative viability (NCI-H1651; first compound 0.8 µM): 0.189 | relative viability (NCI-H1651; first compound 2.53 µM): 0.173 | relative viability (NCI-H1651; first compound 8 µM): 0.167 | relative viability (NCI-H1355; first compound 0.08 µM): 0.709 | relative viability (NCI-H1355; first compound 0.253 µM): 0.767 | relative viability (NCI-H1355; first compound 0.8 µM): 0.76 | relative viability (NCI-H1355; first compound 2.53 µM): 0.647 | relative viability (NCI-H1355; first compound 8 µM): 0.753 | relative viability (H3255; first compound 0.08 µM): 0.629 | relative viability (H3255; first compound 0.253 µM): 0.581 | relative viability (H3255; first compound 0.8 µM): 0.583 | relative viability (H3255; first compound 2.53 µM): 0.537 | relative viability (H3255; first compound 8 µM): 0.573 | relative viability (SW 1573; first compound 0.08 µM): 0.485 | relative viability (SW 1573; first compound 0.253 µM): 0.547 | relative viability (SW 1573; first compound 0.8 µM): 0.505 | relative viability (SW 1573; first compound 2.53 µM): 0.309 | relative viability (SW 1573; first compound 8 µM): 0.224 | relative viability (NCI-H23; first compound 0.08 µM): 0.364 | relative viability (NCI-H23; first compound 0.253 µM): 0.334 | relative viability (NCI-H23; first compound 0.8 µM): 0.239 | relative viability (NCI-H23; first compound 2.53 µM): 0.555 | relative viability (NCI-H23; first compound 8 µM): 0.24 | relative viability (SK-MES-1; first compound 0.08 µM): 0.78 | relative viability (SK-MES-1; first compound 0.253 µM): 0.772 | relative viability (SK-MES-1; first compound 0.8 µM): 0.724 | relative viability (SK-MES-1; first compound 2.53 µM): 0.638 | relative viability (SK-MES-1; first compound 8 µM): 0.64 | relative viability (NCI-H1666; first compound 0.08 µM): 0.681 | relative viability (NCI-H1666; first compound 0.253 µM): 0.79 | relative viability (NCI-H1666; first compound 0.8 µM): 0.678 | relative viability (NCI-H1666; first compound 8 µM): 0.653 | relative viability (NCI-H1437; first compound 0.08 µM): 0.614 | relative viability (NCI-H1437; first compound 0.253 µM): 0.684 | relative viability (NCI-H1437; first compound 0.8 µM): 0.642 | relative viability (NCI-H1437; first compound 8 µM): 0.648 | relative viability (NCI-H1793; first compound 0.08 µM): 0.766 | relative viability (NCI-H1793; first compound 0.253 µM): 0.988 | relative viability (NCI-H1793; first compound 2.53 µM): 0.705 | relative viability (NCI-H1793; first compound 8 µM): 0.83 | relative viability (PC-14; first compound 0.08 µM): 0.276 | relative viability (PC-14; first compound 0.253 µM): 0.257 | relative viability (PC-14; first compound 0.8 µM): 0.296 | relative viability (PC-14; first compound 2.53 µM): 0.252 | relative viability (PC-14; first compound 8 µM): 0.308 | relative viability (CAL-12T; first compound 0.08 µM): 0.774 | relative viability (CAL-12T; first compound 0.253 µM): 0.796 | relative viability (CAL-12T; first compound 0.8 µM): 0.788 | relative viability (CAL-12T; first compound 2.53 µM): 0.766 | relative viability (CAL-12T; first compound 8 µM): 0.793 | relative viability (NCI-H522; first compound 0.08 µM): 0.592 | relative viability (NCI-H522; first compound 0.253 µM): 0.733 | relative viability (NCI-H522; first compound 0.8 µM): 0.662 | relative viability (NCI-H522; first compound 2.53 µM): 0.66 | relative viability (NCI-H522; first compound 8 µM): 0.547 | relative viability (UMC-11; first compound 0.08 µM): 0.37 | relative viability (UMC-11; first compound 0.253 µM): 0.38 | relative viability (UMC-11; first compound 0.8 µM): 0.352 | relative viability (UMC-11; first compound 2.53 µM): 0.27 | relative viability (UMC-11; first compound 8 µM): 0.335 | relative viability (NCI-H2023; first compound 0.08 µM): 0.529 | relative viability (NCI-H2023; first compound 0.253 µM): 0.579 | relative viability (NCI-H2023; first compound 0.8 µM): 0.436 | relative viability (NCI-H2023; first compound 8 µM): 0.395 | relative viability (A-427; first compound 0.08 µM): 0.718 | relative viability (A-427; first compound 0.253 µM): 0.69 | relative viability (A-427; first compound 0.8 µM): 0.678 | relative viability (A-427; first compound 2.53 µM): 0.708 | relative viability (A-427; first compound 8 µM): 0.597 | relative viability (ABC-1; first compound 0.08 µM): 0.862 | relative viability (ABC-1; first compound 0.253 µM): 0.703 | relative viability (ABC-1; first compound 0.8 µM): 0.811 | relative viability (ABC-1; first compound 2.53 µM): 0.719 | relative viability (ABC-1; first compound 8 µM): 0.792 | relative viability (NCI-H838; first compound 0.08 µM): 0.778 | relative viability (NCI-H838; first compound 0.253 µM): 0.757 | relative viability (NCI-H838; first compound 0.8 µM): 0.738 | relative viability (NCI-H838; first compound 2.53 µM): 0.725 | relative viability (NCI-H838; first compound 8 µM): 0.654
